Measured values taken from patent US8436039B2, “Inhibitors of the ATB(0,+) transporter and uses thereof” (Georgia Health Sciences University Research Institute, Inc., priority 2008, dated 2013).

Legend:
[1] = tested on: MCF7, T-47D and ZR-75.1 cells; assay: Colony formation assay, malignant ATB^0,+-positive mammary epithelial cell lines; type: cell-based; details: Homo sapiens, 288 h, 2.5 mM, 12 days, regular culture medium
Experimental: (§1) The colony formation assay was performed as described previously (Thangaraju et al., 2006, Cancer Res. 66, 11560-11564). Mammary epithelial cells were seeded on to 6-well plates (10000 cells per well) in DMEM. After 24 hours, cells were exposed to varying concentrations of α-methyl-DL-tryptophan or 1-methyl-DL-tryptophan for 2 weeks, changing medium every 2 days. Cells were washed with PBS and fixed in 100% (v/v) methanol for 30 min followed by staining with KaryoMAX Giemsa stain for one hour. The wells were washed with water and dried overnight at room temperature. Finally, the dye in the wells was dissolved with 1% SDS in 0.2 M NaOH for one hour, and the attenuance of the released dye was measured at 630 nm.
(§2) The present studies have identified α-methyl-DL-tryptophan as a blocker of ATB^0,+ and also have shown that the compound is able to block the transport of amino acids via ATB^0,+ under conditions that stimulate those in vivo in terms of amino acid concentrations. […] For this, we treated the human mammary epithelial cell lines with 2.5 mM α-methyl-DL-tryptophan in the presence of regular culture medium for 12 days in clonogenic assay and quantified the colony formation for each cell line in the presence and absence of α-methyl-DL-tryptophan (FIG. 8). […]

MCF7 cells [2] = assay: Cell cycle analysis (FACS, propidium iodide) in MCF7 cells; type: cell-based, human; details: 2.5 mM; 24 hours
Experimental: (§3) MCF10A (an ATB^0,+-negative non-malignant cell line), MCF7 (an ATB^0,+-positive malignant cell line) and MDA-MB453 (an ATB^0,+-negative malignant cell line) cells were cultured in 6-well plates in a regular culture medium in the presence or absence of α-methyl-DL-tryptophan (2.5 mM) for 24, 48 and 72 hours. Cells were fixed in 50% (v/v) ethanol, treated with 0.1% sodium citrate, 1 mg/ml RNase A and 50 μg/ml propidium iodide, and subjected to FACS (Becton Dickinson FACSCalibur™) analysis. The amount of DNA in these cells, detected as chromosome content by propidium iodide binding, was used to identify cells in various stages of cell cycle: G1/G0, 2N; S, 2-4 N; G2/M, 4N (where N is the normal chromosome content).
(§4) Since treatment with α-methyl-DL-tryptophan suppressed colony formation in malignant cell lines in an ATB^0,+-dependent manner, we investigated the influence of this treatment on cell cycle to determine which stage of the cycle is affected. We used three different cell lines in this experiment: MCF10A (non-malignant and ATB^0,+-negative), MCF7 (malignant and ATB^0,+-positive) and MDA-MB453 (malignant and ATB^0,+-negative) (FIG. 9). […] In contrast, the treatment affected the cell cycle progression in the ATB^0,+-positive MCF7 cell line. The cells were arrested at G1/G0 stage to a significant extent when treated with α-methyl-DL-tryptophan. […]

[3] = tested on: MCF10A and MDA-MB453 cell lines; assay: Cell cycle analysis (FACS, propidium iodide) in ATB^0,+-negative cell lines; type: cell-based, human; details: 2.5 mM; 24, 48 and 72 hours
Experimental: as §3, §4

MCF7 cells [4] = assay: Colony formation assay, dose-response in MCF7 cells; type: cell-based; details: Homo sapiens, same assay conditions, read-out: IC50 for inhibition of colony formation
Experimental: as §1, §2

CC(N)(Cc1c[nH]c2ccccc12)C(=O)O (racemic) [α-methyl-DL-tryptophan]
inhibition at 2500 µM [1]: 60 to 75%
percentage of MCF7 cells in G1/G0-phase (MCF7 cells [2]): 82±1 percentage
percentage of MCF7 cells in S-phase (MCF7 cells [2]): 3±1 percentage
effect on cell cycle [3]: no effect on cell cycle
IC50 (MCF7 cells [4]): 160 ± 15 µM
